Columns and labels:
Assay type in all cases: cell-based
HCC-78 cell line = assay: Change in metabolites in HCC-78 cell line after ALK/ROS-1 kinase inhibitor treatment, UHPLC-MS; settings: HCC-78, 1 μM, 24 hours, n=5
Protocol: HCC-78 lung cancer cells were cultured in a 5% carbon dioxide cell incubator at a temperature of 37° C. using a RPMI medium containing 10% fetal bovine serum and 1% antibiotic. […] At this time, as a control group, DMSO (dimethyl sulfoxide) was added to the cells in an amount to be 0.01% of the total medium, and the cells were cultured for 24 hours. Each cell was cultured in 5 cell dishes for each group so that the total number of experiments for each group was 5 (n=5).
After the culture time of 24 hours had elapsed, the medium was removed, and the cells were washed two times with PBS (phosphate buffered saline). The cells were then acquired from the culture dish using a cell scraper, put in a tube, and stored at −80° C.
(§1) Thereafter, a process in which the mixed solution was frozen using liquid nitrogen, dissolved in water at room temperature, and then sonicated for 30 seconds was repeated three times to destroy the cells. Thereafter, the resultant mixed solution was subjected to centrifugation at 14000 rpm for 10 minutes, and only the supernatant was separated from this. At this time, DNA quantitation was conducted in order to correct the cell volume of the intracellular fluid extract acquired according to the series of procedures. DNA quantitation was conducted by mixing the extract with water at a ratio of 1:3, putting 5 μL of the mixture in a cuvette, and measuring the quantity at 260 nm by using a spectrophotometer Nano-MD of SHINKO CO., LTD.
(§2) Specifically, 10 μL of the acquired sample was injected into the ultra-high-performance liquid chromatography system-mass spectrometer, and the temperature of the injector was maintained at 4° C. […]
(§3) Specifically, Excel raw data attained by conducting calibration and peak alignment using the compound discovery software of Thermo Fisher Scientific Inc. was extracted from the chromatogram. […] The extracted file was first divided by the internal standard substance and corrected using DNA quantitation of cells, and statistical processing was conducted using SIMCA software. […]

HCC-78 cells = assay: WST-1 assay, cell growth inhibitory effect on lung carcinoma cell line (HCC-78); settings: for inhibition of growth of HCC-78 cells (in words): 1 μM, 24, 48 and 72 hours, Student's t-test, p<0.05; for growth rate of HCC-78 cells (control group = 100%): 1 μM
Protocol: Specifically, HCC-78 lung cancer cells deposited under an accession number of KCTC13642BP on Sep. […] At this time, DMSO (dimethyl sulfoxide) was added to a control group in an amount to be 0.01% of the total medium, 1 μM doxorubicin was added to a positive control group, and then these control group and positive control group were cultured for 24, 48, and 72 hours, respectively. In addition, the experiment was conducted using an A549 cell line instead of the HCC cell line as a negative control group. The A549 cell line is a kRAS mutant cell line and is also a cell line which is not involved in the overexpression of ALK and ROS-1.
When each of the culture times passed after drug treatment, the WST-1 reagent was added to each medium in an amount to be 10% of the medium, the cells were cultured for 1 hour, and then the absorbance of cells was measured at 470 nm by using an ELISA instrument.

MCF-7 cell line = assay: Change in metabolites in MCF-7 cell line after crizotinib treatment, UHPLC-MS; settings: MCF-7, 1 μM, 12 hours, n=5
Protocol: MCF-7 breast cancer cells were cultured in a 5% carbon dioxide cell incubator at a temperature of 37° C. using a DMEM medium containing 10% fetal bovine serum and 1% antibiotic. […] At this time, as a control group, DMSO was added to the cells in an amount to be 0.01% of the total medium, and the cells were cultured for 12 hours. Each cell was cultured in 5 cell dishes for each group so that the total number of experiments for each group was 5 (n=5).
After the culture time of 12 hours had elapsed, the medium was removed, and the cells were washed two times with PBS. The cells were then acquired from the culture dish using a cell scraper, put in a tube, and stored at −80° C.
as §1, §2, §3

[1] = test system: MCF-7 breast cancer cells; assay: MTT assay, cell viability of breast cancer cell line (MCF-7); settings: 1 μM, 72 hours
Protocol: Specifically, MCF-7 breast cancer cells deposited under an accession number of KCTC13643BP on Sep. […] At this time, DMSO (dimethyl sulfoxide) was added to a control group in an amount to be 0.01% of the total medium, 1 μM paclitaxel was added to a positive control group, and then these control group and positive control group were cultured for 72 hours.
When each of the culture times passed after drug treatment, the supernatant of each medium was removed, the MTT reagent was added to the fresh medium so as to be 0.5 mg/ml, the cells were cultured for 3 hours, then the supernatant was removed again, and then the medium was reconstituted with 100 μL of DMSO. Thereafter, the absorbance of cells was measured at 590 nm by using an ELISA instrument.

SMILES: Cc1cc(Nc2ncc(Cl)c(Nc3ccccc3S(=O)(=O)C(C)C)n2)c(OC(C)C)cc1C1CCNCC1 [ceritinib]
- AMP increase as compared with control group (HCC-78 cell line): 188.21%
- adenosine decrease as compared with control group (HCC-78 cell line): 95.31%
- cAMP decrease as compared with control group (HCC-78 cell line): 66.78%
- inhibition of growth of HCC-78 cells (in words) (HCC-78 cells): significantly inhibited, particularly time dependently inhibited the growth of HCC-78 cells
- growth rate of HCC-78 cells (control group = 100%) (HCC-78 cells; 24 hours after treatment): 73.73%
- growth rate of HCC-78 cells (control group = 100%) (HCC-78 cells; 48 hours after treatment): 37.17%
- growth rate of HCC-78 cells (control group = 100%) (HCC-78 cells; 72 hours after treatment): 17.99%

SMILES: C[C@@H](Oc1cc(-c2cnn(C3CCNCC3)c2)cnc1N)c1c(Cl)ccc(F)c1Cl [crizotinib]
- AMP increase (MCF-7 cell line): 82.91%
- adenosine decrease (MCF-7 cell line): 32.07%
- cAMP decrease (MCF-7 cell line): 28.6%
- inhibition of growth of HCC-78 cells (in words) (HCC-78 cells): significantly inhibited, particularly time dependently inhibited the growth of HCC-78 cells

SMILES: CC(C)(C)c1nc(-c2cccc(NS(=O)(=O)c3c(F)cccc3F)c2F)c(-c2ccnc(N)n2)s1 [dabrafenib]
- inhibition of cell growth of MCF-7 cell line (in words) ([1]; Student's t-test, p value <0.05): 5 kinds of kinase inhibitors except dabrafenib significantly inhibited

SMILES: COc1cccc2c1C(=O)c1c(O)c3c(c(O)c1C2=O)C[C@@](O)(C(=O)CO)C[C@@H]3O[C@H]1C[C@H](N)[C@H](O)[C@H](C)O1 [doxorubicin]
- growth rate of HCC-78 cells (control group = 100%) (HCC-78 cells; 24 hours after treatment): 57.65%

SMILES: CC(=O)O[C@H]1C(=O)[C@@]2(C)[C@H]([C@H](OC(=O)c3ccccc3)[C@]3(O)C[C@H](OC(=O)[C@H](O)[C@@H](NC(=O)c4ccccc4)c4ccccc4)C(C)=C1C3(C)C)[C@]1(OC(C)=O)CO[C@@H]1C[C@@H]2O [paclitaxel]
- cell growth rate of MCF-7 as compared with control group [1]: 46.86%
